The text below walks through data of PMC4890880 (ACS infectious diseases, 2016).

The subject of data set [1] is Plasmodium berghei (Pb-Luc) exoerythrocytic-stage parasites. Briefly: microbe, parasite or virus in culture.
For data set [2], the system named is HepG2-A16-CD81EGFP cells. Description: cells. The settings on record: Homo sapiens, HepG2, read-out: % inhibition.
For data set [3], the system named is HepG2-A16-CD81EGFP cells. The settings on record: human, 50 uM.
Where [4] appears, read: read-out: Inhibition% @ 50 uM rep1.
Where [5] appears, read: read-out: Inhibition% @ 50 uM rep2.

The structures appear in SMILES notation. Read-outs that look alike come from different tables or passages of the source.

`CCn1c2c(c(=N)c3c1CCC3)CCCC2` [MMV000340]: the inhibition at 50 µM in data set [1] (setting [4]) came to 102%; in data set [1] (setting [5]) it was 102%; in the data set with HepG2-A16-CD81EGFP cells [2], 75.3%.

For `CCOc1ccc2c(c1)CN(Cc1ccc(Cl)cc1)CO2` [MMV000443], the inhibition at 50 µM is 102% in data set [1] (setting [4]), 104% in data set [1] (setting [5]) and 95.5% in the data set with HepG2-A16-CD81EGFP cells [2].

Take `COc1ccc(-c2cc(=O)oc3c4c(ccc23)OCN(Cc2ccc(F)cc2)C4)cc1` [MMV000604]: the inhibition at 50 µM in data set [1] (setting [4]) stood at 100%; in data set [1] (setting [5]) it was 101%; in the data set on HepG2-A16-CD81EGFP cells [2] it was 57.1%.

Consider `COc1ccc(C(O)(CCC(C)C)C(CN2CCOCC2)c2ccc(Cl)cc2)cc1` (stereo not shown) [MMV000617], for which the results for the inhibition at 50 µM (in data set [1] (setting [4]); in data set [1] (setting [5]); in the data set on HepG2-A16-CD81EGFP cells [2]) were 103%, 103% and 98.4%, respectively.

For `CCCCCCC(O)(c1ccc(F)cc1)C(CN1CCOCC1)c1ccccc1` (stereo not shown) [MMV000621], the results for the inhibition at 50 µM (in data set [1] (setting [4]); in data set [1] (setting [5]); in the data set with HepG2-A16-CD81EGFP cells [2]) were 104%, 103% and 98.1%, respectively.

In the case of `COc1ccc2sc(N(Cc3cccnc3)C(=O)c3ccc(C#N)cc3)nc2c1` [MMV001239], the results for the inhibition at 50 µM (in data set [1] (setting [4]); in data set [1] (setting [5]); in the data set on HepG2-A16-CD81EGFP cells [2]) were 73%, 85% and 63.2%, respectively.

With `O=C1c2ccccc2C2=Nc3ccccc3SC(c3cccc(F)c3)C12` (stereo not shown) [MMV006389], the figures for the inhibition at 50 µM (in data set [1] (setting [4]); in data set [1] (setting [5]); with HepG2-A16-CD81EGFP cells [2]) were 102%, 103% and 96.2%, respectively.

As for `CCOc1ccc2nc(C)cc(Nc3ccc(Br)cc3)c2c1` [MMV006522], the inhibition at 50 µM came to 102% in data set [1] (setting [4]), 104% in data set [1] (setting [5]) and 98.8% in the data set with HepG2-A16-CD81EGFP cells [2].

`CCOc1c(Br)cc(C2C(C(=O)OC)=CN(C)C=C2C(=O)OC)cc1OC` [MMV006764]: the inhibition at 50 µM in data set [1] (setting [4]) was 103%; in data set [1] (setting [5]), 103%; in the data set on HepG2-A16-CD81EGFP cells [2] it was 31.2%.

On to `OC1=C2C(=Nc3ccccc3SC2c2ccc(Br)cc2)c2ccccc21` (stereo not shown) [MMV007127], for which the inhibition at 50 µM in data set [1] (setting [4]) turned out to be 103%; in data set [1] (setting [5]) it was 103%; with HepG2-A16-CD81EGFP cells [2], 64.3%.

Take `COc1ccc(OC)c(C2C3=C(CC(C)(C)CC3=O)N(c3ccc(Cl)c(Cl)c3)C3=C2C(=O)CC(C)(C)C3)c1` [MMV007208]: the results for the inhibition at 50 µM (in data set [1] (setting [4]); in data set [1] (setting [5]); with HepG2-A16-CD81EGFP cells [2]) were -11%, -11% and -4.26%, respectively.

For `Cc1cccc(N2C(=O)C3C(C2=O)C2(c4ccccc4)C(=O)C3(c3ccccc3)C(c3ccc4c(c3)OCO4)=C2c2ccc3c(c2)OCO3)c1` (stereo not shown) [MMV007228], the inhibition at 50 µM is 57% in data set [1] (setting [4]), 57% in data set [1] (setting [5]) and -4.28% with HepG2-A16-CD81EGFP cells [2].

`Clc1ccc2c(N3CCCC3)ccnc2c1` [MMV007363]: the inhibition at 50 µM in data set [1] (setting [4]) amounted to 91%; in data set [1] (setting [5]) it was 94%; in the data set with HepG2-A16-CD81EGFP cells [2] it was 39.1%.

Regarding `Cc1ccccc1OCCSc1nc2ccc(NC(=O)c3cccs3)cc2s1` [MMV007396], the inhibition at 50 µM in data set [1] (setting [4]) is 103%; in data set [1] (setting [5]) it was 104%; in the data set with HepG2-A16-CD81EGFP cells [2] it was 37.1%.

As for `COc1cc2c3cc1Oc1c(OC)c(OC)cc4c1C(Cc1ccc(O)c(c1)Oc1ccc(cc1)CC3N(C)CC2)N(C)CC4` (stereo not shown) [MMV007474], the inhibition at 50 µM is 104% in data set [1] (setting [4]), 104% in data set [1] (setting [5]) and 99.3% with HepG2-A16-CD81EGFP cells [2].

As to `O=C(Nc1ccc(C23CC4CC(CC(c5ccccc5)(C4)C2)C3)cc1)c1cccs1` [MMV007574], the inhibition at 50 µM in data set [1] (setting [4]) came to 103%; in data set [1] (setting [5]) it was 103%; with HepG2-A16-CD81EGFP cells [2] it was 83.6%.

For `Cc1ccccc1OCCSc1nc2ccc(NC(=O)c3ccccc3)cc2s1` [MMV007577], the inhibition at 50 µM is 103% in data set [1] (setting [4]), 103% in data set [1] (setting [5]) and 67.4% with HepG2-A16-CD81EGFP cells [2].

Regarding `CCCCc1c(CCC)c(=N)c2ccccc2n1C` [MMV007764], the values for the inhibition at 50 µM (in data set [1] (setting [4]); in data set [1] (setting [5]); in the data set with HepG2-A16-CD81EGFP cells [2]) were 103%, 103% and 83.9%, respectively.

Regarding `CCOc1ccccc1NC(=O)CN1CCN(C(=O)c2ccco2)CC1` [MMV007791], the inhibition at 50 µM is 16% in data set [1] (setting [4]), 43% in data set [1] (setting [5]) and -15% in the data set on HepG2-A16-CD81EGFP cells [2].

Take `CCCCN(CCCC)S(=O)(=O)c1ccc(NC(=O)c2ccco2)cc1` [MMV007881]: the inhibition at 50 µM in data set [1] (setting [4]) is 98%; in data set [1] (setting [5]), 99%; in the data set with HepG2-A16-CD81EGFP cells [2], 94.7%.

As for `CN1C=C(c2ccc3ccccc3n2)C(c2c[nH]c3ccccc23)c2ccccc21` (stereo not shown) [MMV008160], the inhibition at 50 µM came out at 103% in data set [1] (setting [4]), 104% in data set [1] (setting [5]) and 91.2% in the data set on HepG2-A16-CD81EGFP cells [2].

For the molecule `COc1cc(OC)cc(N2C(=O)N(Cc3ccc(C(C)(C)C)cc3)c3ccccc3S2(=O)=O)c1` [MMV008173], the inhibition at 50 µM is 78% in data set [1] (setting [4]), 88% in data set [1] (setting [5]) and -9.98% in the data set on HepG2-A16-CD81EGFP cells [2].

On to `COc1ccc(C2C(C(=O)Nc3cccc(OC)c3)c3ccccc3C(=O)N2C2CCCCC2)cc1` (stereo not shown) [MMV008455], for which the values for the inhibition at 50 µM (in data set [1] (setting [4]); in data set [1] (setting [5]); in the data set on HepG2-A16-CD81EGFP cells [2]) were 94%, 92% and 28%, respectively.

Consider `CCCn1c(=N)c(C(=O)NC2CCCCC2)cc2c(=O)n3cccc(C)c3nc21` [MMV008829], for which the inhibition at 50 µM in data set [1] (setting [4]) is 54%; in data set [1] (setting [5]) it was 45%; with HepG2-A16-CD81EGFP cells [2], -21%.

As for `CCOC(=O)c1cnc2ccc(OC)cc2c1NCc1ccccc1` [MMV665813], the “HepG2 Tox% @ 50 uM rep1” value with HepG2-A16-CD81EGFP cells [3] is 102%. For the same molecule, the inhibition at 50 µM in data set [1] (setting [4]) amounted to 103%; in data set [1] (setting [5]) it was 104%.

On to `OC(CNC1CCCCC1)Cn1c2ccc(I)cc2c2cc(I)ccc21` (stereo not shown) [MMV665882], for which, in the data set on HepG2-A16-CD81EGFP cells [3], the “HepG2 Tox% @ 50 uM rep1” value was found to be 100%. Besides, the inhibition at 50 µM in data set [1] (setting [4]) came to 103%; in data set [1] (setting [5]), 104%.

Consider `COc1ccc2nc(N)nc(C)c2c1` [MMV665897], for which the “HepG2 Tox% @ 50 uM rep1” value in the data set on HepG2-A16-CD81EGFP cells [3] stood at 97%. Moreover, the inhibition at 50 µM in data set [1] (setting [4]) stood at 100%; in data set [1] (setting [5]), 101%.

In the case of `N=c1n(CCN2CCCCC2)c2ccccc2n1CC(O)c1cccc(Br)c1` (stereo not shown) [MMV665902], in the data set with HepG2-A16-CD81EGFP cells [3], the “HepG2 Tox% @ 50 uM rep1” value amounted to 101% and the “HepG2 Tox% @ 50 uM rep2” value was determined as 102%. Moreover, the inhibition at 50 µM in data set [1] (setting [4]) is 104%. For the same molecule, the inhibition at 50 µM in data set [1] (setting [5]) is 105%.

Turning to `FC(F)(F)c1cccc(CNC2CCN(CCc3ccccc3)CC2)c1` [MMV665979], in the data set on HepG2-A16-CD81EGFP cells [3], the “HepG2 Tox% @ 50 uM rep1” value amounted to 99% and the “HepG2 Tox% @ 50 uM rep2” value was 99%. Further, the inhibition at 50 µM in data set [1] (setting [4]) came to 101%. Also, in data set [1] (setting [5]), the inhibition at 50 µM stood at 99%.

Take `COc1ccc(CNC2CCN(c3ccc(NC(=O)c4cccc(Cl)c4)cc3)CC2)cc1OC` [MMV666067]: in the data set on HepG2-A16-CD81EGFP cells [3], the “HepG2 Tox% @ 50 uM rep1” value came out at 98% and the “HepG2 Tox% @ 50 uM rep2” value is 99%. Moreover, the inhibition at 50 µM in data set [1] (setting [4]) was found to be 102%. The inhibition at 50 µM in data set [1] (setting [5]) came to 99%.

Consider `COc1ccc(CCN2CCC(CN(C)Cc3cnn(-c4ccccc4)c3)CC2)cc1` [MMV666069], for which, in the data set on HepG2-A16-CD81EGFP cells [3], the “HepG2 Tox% @ 50 uM rep1” value stood at 99% and the “HepG2 Tox% @ 50 uM rep2” value is 100%. For the same molecule, the inhibition at 50 µM in data set [1] (setting [4]) was 101%. For the same molecule, in data set [1] (setting [5]), the inhibition at 50 µM turned out to be 103%.

Turning to `COc1ccccc1C(=O)ON=C(N)Cc1cccc2ccccc12` [MMV666686], in the data set with HepG2-A16-CD81EGFP cells [3], the “HepG2 Tox% @ 50 uM rep1” value is 101%. Besides, the inhibition at 50 µM in data set [1] (setting [4]) and in data set [1] (setting [5]) was 104% each time.
